According to patent US20230348376A1 (TEIJIN PHARMA LIMITED, priority 2020, published 2023):

These molecules were tested against T1, human VDR (Homo sapiens, UniProt P11473) (assay: Evaluation of VDR transcription activity in human osteoblasts (HOS cells), luciferase reporter). Details: Activity (EC50, VDR transcription activity), HOS cells transfected with human VDR, human RXRα and DR3 luciferase reporter; 21 hours.
T1 sequence (P11473 1-427): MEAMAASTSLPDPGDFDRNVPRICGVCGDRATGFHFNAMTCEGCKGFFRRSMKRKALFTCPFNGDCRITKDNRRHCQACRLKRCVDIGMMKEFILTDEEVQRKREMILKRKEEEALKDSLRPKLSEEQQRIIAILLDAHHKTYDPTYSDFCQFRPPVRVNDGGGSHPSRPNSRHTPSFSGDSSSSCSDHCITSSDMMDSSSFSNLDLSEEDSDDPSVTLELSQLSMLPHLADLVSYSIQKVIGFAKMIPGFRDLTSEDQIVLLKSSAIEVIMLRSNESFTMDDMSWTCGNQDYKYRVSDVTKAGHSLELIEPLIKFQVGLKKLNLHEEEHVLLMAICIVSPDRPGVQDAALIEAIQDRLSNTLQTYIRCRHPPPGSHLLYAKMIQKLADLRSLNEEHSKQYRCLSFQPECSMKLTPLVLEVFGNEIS
T1 sequence (P19793 1-462 partner): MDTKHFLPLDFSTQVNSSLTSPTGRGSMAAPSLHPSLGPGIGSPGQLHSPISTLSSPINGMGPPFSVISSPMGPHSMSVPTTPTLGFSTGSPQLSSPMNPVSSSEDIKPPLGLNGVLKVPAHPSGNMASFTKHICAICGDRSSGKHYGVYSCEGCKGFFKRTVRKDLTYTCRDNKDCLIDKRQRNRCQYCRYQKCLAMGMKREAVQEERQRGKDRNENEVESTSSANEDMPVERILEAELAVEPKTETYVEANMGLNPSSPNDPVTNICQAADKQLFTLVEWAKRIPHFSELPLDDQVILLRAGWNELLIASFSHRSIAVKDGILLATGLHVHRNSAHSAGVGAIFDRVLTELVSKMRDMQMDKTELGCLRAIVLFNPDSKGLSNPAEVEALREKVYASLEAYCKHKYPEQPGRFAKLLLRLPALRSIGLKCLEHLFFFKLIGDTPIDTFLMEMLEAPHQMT

| Compound | EC50 [nM] |
| --- | --- |
| C[C@@H](CN1CC[C@@H](F)C1)[C@H]1CC[C@H]2/C(=C/C=C3CC(O)C[C@H](O)C3)CCC[C@]12C (stereo in doubt) [Compound B098, (1R,3S)-5-(2-((1R,3aS,7aR,E)-1-((R)-1-((R)-3-fluoropyrrolidin-1-yl)propan-2-yl)-7a-methyloctahydro-4H-inden-4-ylidene)ethylidene)cyclohexane-1,3-diol] | 10 to 100 |
| C[C@@H](CN1CC[C@H](C(F)F)C1)[C@H]1CC[C@H]2/C(=C/C=C3CC(O)C[C@H](O)C3)CCC[C@]12C (stereo in doubt) [Compound B099, (1R,3S)-5-(2-((1R,3aS,7aR,E)-1-((R)-1-((S)-3-(difluoromethyl)pyrrolidin-1-yl)propan-2-yl)-7a-methyloctahydro-4H-inden-4-ylidene)ethylidene)cyclohexane-1,3-diol] | 10 to 100 |
| C[C@@H](CN1CC[C@@H](C(F)F)C1)[C@H]1CC[C@H]2/C(=C/C=C3CC(O)C[C@H](O)C3)CCC[C@]12C (stereo in doubt) [Compound B100, (1R,3S)-5-(2-((1R,3aS,7aR,E)-1-((R)-1-((R)-3-(difluoromethyl)pyrrolidin-1-yl)propan-2-yl)-7a-methyloctahydro-4H-inden-4-ylidene)ethylidene)cyclohexane-1,3-diol] | 1 to 10 |
| C[C@@H](CN1CC[C@H](C(C)(F)F)C1)[C@H]1CC[C@H]2/C(=C/C=C3CC(O)C[C@H](O)C3)CCC[C@]12C (stereo in doubt) [Compound B101, (1R,3S)-5-(2-((1R,3aS,7aR,E)-1-((R)-1-((S)-3-(1,1-difluoroethyl)pyrrolidin-1-yl)propan-2-yl)-7a-methyloctahydro-4H-inden-4-ylidene)ethylidene)cyclohexane-1,3-diol] | 10 to 100 |
| C[C@@H](CN1CC[C@@H](C(C)(F)F)C1)[C@H]1CC[C@H]2/C(=C/C=C3CC(O)C[C@H](O)C3)CCC[C@]12C (stereo in doubt) [Compound B102, (1R,3S)-5-(2-((1R,3aS,7aR,E)-1-((R)-1-((R)-3-(1,1-difluoroethyl)pyrrolidin-1-yl)propan-2-yl)-7a-methyloctahydro-4H-inden-4-ylidene)ethylidene)cyclohexane-1,3-diol] | 1 to 10 |
| C[C@@H](CN1CC[C@@H](CC(F)F)C1)[C@H]1CC[C@H]2/C(=C/C=C3CC(O)C[C@H](O)C3)CCC[C@]12C (stereo in doubt) [Compound B103, (1R,3 S)-5-(2-((1R,3aS,7aR,E)-1-((R)-1-((S)-3-(2,2-difluoroethyl)pyrrolidin-1-yl)propan-2-yl)-7a-methyloctahydro-4H-inden-4-ylidene)ethylidene)cyclohexane-1,3-diol] | 10 to 100 |
| C=C1C(O)CC(=C/C=C2\CCC[C@]3(C)[C@@H]([C@H](C)CCN4CCOC5(CC5)C4)CC[C@@H]23)C[C@H]1O (stereo in doubt) [Compound D026, (1R,3S)-5-(2-((1R,3aS,7aR,E)-1-((R)-4-(4-oxa-7-azaspiro[2.5]octan-7-yl)butan-2-yl)-7a-methyloctahydro-4H-inden-4-ylidene)ethylidene)-2-methylenecyclohexane-1,3-diol] | 1 to 10 |
| C=C1/C(=C\C=C2/CCC[C@]3(C)[C@@H]([C@H](C)CCN4CCOC[C@H]4C)CC[C@@H]23)C[C@@H](O)CC1O (stereo in doubt) [Compound D046, (1R,3R,Z)-5-(2-((1R,3aS,7aR,E)-7a-methyl-1-((R)-4-((R)-3-methylmorpholino)butan-2-yl)octahydro-4H-inden-4-ylidene)ethylidene)-4-methylenecyclohexane-1,3-diol] | 10 to 100 |
| C=C1[C@H](O)CC(=C/C=C2\CCC[C@]3(C)[C@@H]([C@H](C)CN4CC(F)C4)CC[C@@H]23)C[C@H]1O [Compound A002, (1R,3R)-5-(2-((1R,3aS,7aR,E)-1-((S)-1-(3-fluoroazetidin-1-yl)propan-2-yl)-7a-methyloctahydro-4H-inden-4-ylidene)ethylidene)-2-methylenecyclohexane-1,3-diol] | 10 to 100 |
| C=C1/C(=C\C=C2/CCC[C@]3(C)[C@@H]([C@H](C)CN4CC(C(C)(F)F)C4)CC[C@@H]23)C[C@@H](O)C[C@@H]1O [Compound A006, (1R,3S,Z)-5-(2-((1R,3aS,7aR,E)-1-((S)-1-(3-(1,1-difluoroethyl)azetidin-1-yl)propan-2-yl)-7a-methyloctahydro-4H-inden-4-ylidene)ethylidene)-4-methylenecyclohexane-1,3-diol] | 10 to 100 |
| C=C1[C@H](O)CC(=C/C=C2\CCC[C@]3(C)[C@@H]([C@H](C)CN4CC(C(C)(F)F)C4)CC[C@@H]23)C[C@H]1O [Compound A007, (1R,3R)-5-(2-((1R,3aS,7aR,E)-1-((S)-1-(3-(1,1-difluoroethyl)azetidin-1-yl)propan-2-yl)-7a-methyloctahydro-4H-inden-4-ylidene)ethylidene)-2-methylenecyclohexane-1,3-diol] | 10 to 100 |
| C=C1/C(=C\C=C2/CCC[C@]3(C)[C@@H]([C@H](C)CN4CC(C(C)(F)F)C4)CC[C@@H]23)C[C@@H](O)[C@H](C)[C@@H]1O [Compound A008, (1R,2S,3S,Z)-5-(2-((1R,3aS,7aR,E)-1-((S)-1-(3-(1,1-difluoroethyl)azetidin-1-yl)propan-2-yl)-7a-methyloctahydro-4H-inden-4-ylidene)ethylidene)-2-methyl-4-methylenecyclohexane-1,3-diol] | 10 to 100 |
| C=C1/C(=C\C=C2/CCC[C@]3(C)[C@@H]([C@H](C)CN4CC(O)(C(F)(F)F)C4)CC[C@@H]23)C[C@@H](O)C[C@@H]1O [Compound A009, (1R,3S,Z)-5-(2-((1R,3aS,7aR,E)-1-((S)-1-(3-hydroxy-3-(trifluoromethyl)azetidin-1-yl)propan-2-yl)-7a-methyloctahydro-4H-inden-4-ylidene)ethylidene)-4-methylenecyclohexane-1,3-diol] | 1 to 10 |
| C[C@H](CN1CC(O)(C(F)(F)F)C1)[C@H]1CC[C@H]2/C(=C/C=C3C[C@@H](O)C[C@H](O)C3)CCC[C@]12C [Compound A010, (1R,3R)-5-(2-((1R,3aS,7aR,E)-1-((S)-1-(3-hydroxy-3-(trifluoromethyl)azetidin-1-yl)propan-2-yl)-7a-methyloctahydro-4H-inden-4-ylidene)ethylidene)cyclohexane-1,3-diol] | 1 to 10 |
| C=C1[C@H](O)CC(=C/C=C2\CCC[C@]3(C)[C@@H]([C@H](C)CN4CC(O)(C(F)(F)F)C4)CC[C@@H]23)C[C@H]1O [Compound A011, (1R,3R)-5-(2-((1R,3aS,7aR,E)-1-((S)-1-(3-hydroxy-3-(trifluoromethyl)azetidin-1-yl)propan-2-yl)-7a-methyloctahydro-4H-inden-4-ylidene)ethylidene)-2-methylenecyclohexane-1,3-diol] | < 1 |
| COC1(C(F)(F)F)CN(C[C@@H](C)[C@H]2CC[C@H]3/C(=C/C=C4C[C@@H](O)C[C@H](O)C4)CCC[C@]23C)C1 [Compound A012, (1R,3R)-5-(2-((1R,3aS,7aR,E)-1-((S)-1-(3-methoxy-3-trifluoromethylazetidin-1-yl)propan-2-yl)-7a-methyloctahydro-4H-inden-4-ylidene)ethylidene)cyclohexane-1,3-diol] | 10 to 100 |
| C[C@H](CN1CC(OC(F)(F)F)C1)[C@H]1CC[C@H]2/C(=C/C=C3C[C@@H](O)C[C@H](O)C3)CCC[C@]12C [Compound A013] | 100 to 1000 |
| C=C1[C@H](O)CC(=C/C=C2\CCC[C@]3(C)[C@@H]([C@H](C)CN4CC(OCC(F)F)C4)CC[C@@H]23)C[C@H]1O [Compound A016, (1R,3R)-5-(2-((1R,3aS,7aR,E)-1-((S)-1-(3-(2,2-difluoroethoxy)azetidin-1-yl)propan-2-yl)-7a-methyloctahydro-4H-inden-4-ylidene)ethylidene)-2-methylenecyclohexane-1,3-diol] | 10 to 100 |
| C=C1[C@H](O)CC(=C/C=C2\CCC[C@]3(C)[C@@H]([C@H](C)CN4CC(OC(F)F)C4)CC[C@@H]23)C[C@H]1O [Compound A018] | 1 to 10 |
| C[C@H](CN1CC(CC(F)F)C1)[C@H]1CC[C@H]2/C(=C/C=C3C[C@@H](O)C[C@H](O)C3)CCC[C@]12C [Compound A021, (1R,3R)-5-(2-((1R,3aS,7aR,E)-1-((S)-1-(3-(2,2-difluoroethyl)azetidin-1-yl)propan-2-yl)-7a-methyloctahydro-4H-inden-4-ylidene)ethylidene)cyclohexane-1,3-diol] | 100 to 1000 |
| C=C1[C@H](O)CC(=C/C=C2\CCC[C@]3(C)[C@@H]([C@H](C)CCN4CC(O)(C(F)(F)F)C4)CC[C@@H]23)C[C@H]1O [Compound A023, (1R,3R)-5-(2-((1R,3aS,7aR,E)-1-((R)-4-(3-hydroxy-3-(trifluoromethyl)azetidin-1-yl)butan-2-yl)-7a-methyloctahydro-4H-inden-4-ylidene)ethylidene)-2-methylenecyclohexane-1,3-diol] | < 1 |
